Results from patent publication US7217688B2, “Methods and compositions for derepression of IAP-inhibited caspase” (The Burnham Institute, priority 2005, dated 2007).
Values belong to the compound of their own block, whether it stands above or below them. Square brackets hold non-standard residues; d marks the D form. Ends that are not written are not given here. Peptide text beside a SMILES is read from it. * marks the point of attachment. 5TAMRA = CN(C)c1ccc2c(c1)Oc1cc(N(C)C)ccc1C21OC(=O)c2cc(C(=O)*)ccc21; Phe(4-Cl) = N[C@@H](Cc1ccc(Cl)cc1)C(=O)O; 2Nal = N[C@@H](Cc1ccc2ccccc2c1)C(=O)O; Fmoc = O=C(OCC1c2ccccc2-c2ccccc21)*; 2Thi = N[C@@H](Cc1cccs1)C(=O)O

Tests used:
GST-BIR2 (XIAP fragment) = experiment: fluorescence polarization binding of rhodamine-SMAC
Description: Assays were run in 50 mM Tris @ pH 7.2/100 mM NaCl/0.1% BSA.

full length XIAP = full length XIAP (Homo sapiens, UniProt P98170); experiment: potency of IAP antagonists at restoring caspase-3 activity / SMAC competition assay (Table VIII); settings: for EC50: amount of compound necessary to restore caspase-3 activity to 50% of Vmax; for Relative Potency: fold relative to SMAC AVPI tetrapeptide
Jurkat leukemia cells = experiment: Jurkat cell death (Annexin V / propidium iodide flow cytometry); format: cell-based; settings: for % nonviable cells: 20 hours; for cells killed: one day treatment
Description: The following assay was used to test the ability of individual compounds from the TPI 1396 and TPI 1391 libraries to induce apoptosis of cultured tumor cell lines. Each of the compounds listed in Table IX was individually added to Jurkat leukemia cells (6.25×10^5 cells/mL) in RPMI containing 2.5% FBS at various concentrations for 20 hours. After incubation, cells were washed and stained with FITC-conjugated Annexin V antibody and propidium iodide (Biovision; Mountain View, Calif.). Cells were incubated for 20 minutes at room temperature in the dark and fluorescence was measured by flow cytometry (FACScan, Immunocytometry system; Becton-Dickinson; San Jose, Calif.). Cells staining positive for Annexin V were deemed non-viable.

[1] = tested on: normal bone marrow mononuclear cells; experiment: normal bone marrow cell toxicity (Annexin V); format: cell-based; settings: 5 μM, 20 hours
Description: After incubation, cells were washed, stained with FITC-conjugated Annexin V antibody and propidium iodide, and fluorescence measured by flow cytometry as described above.

[2] = tested on: PPC1 prostate cancer cells; experiment: PPC1 tumor xenograft; format: in vivo, Balb/C nu-/nu- mice; settings: 30 mg/kg i.p. for 2 or 3 days
Description: Similar data was obtained using TPI 1396-22 (see FIG. 33a and 33b). […] In FIG. 33b, the mice were sacrificed at day 19 and the tumors excised and weighed.

XIAP-inhibited caspase-3 = biological target: T1, XIAP-inhibited caspase-3 (Homo sapiens, UniProt P98170); experiment: caspase derepression assay (XIAP-inhibited caspase-3, Ac-DEVD-AFC hydrolysis); format: biochemical
T1 construct: in the derepression assay using full length XIAP; made in house; host or cells: bacteria
Description: Caspase activity was assayed by release of 7-amino-4-trifluoromethyl-coumarin (AFC) from Ac-DEVD-AFC synthetic peptide using a Molecular Devices Spectromax 340 (see Zhou et al., J. Biol. Chem. 272:7797–7800 (1997)). […] The ratio of Vmax for hydrolysis of Ac-DEVD-AFC in the presence and absence of the candidate mixture was calculated and used to identify those that contain an agent that derepresses an IAP-inhibited caspase.
Screening of each mixture from the DCR390, TPI 1239 or TPI 1328 library, respectively, using the above described assay was carried out as follows. Each mixture was aliquoted in a 25 microliter volume and in duplicate to a well of a 96 well microtiter plate. […] Fluorescence of liberated AFC was immediately detected from each well for 30 minutes at 30 second intervals. The Vmax for hydrolysis of AC-DEVD-AFC from each well was measured using the softmax software package. Results of the screen for the DCR390 library are shown in Table I. Sets of mixtures having the same position fixed with different respective amino acids are arranged in 6 sections identified with the position number. […] The mixture in each section are arranged in descending order according to apparent velocity in the second column.
Briefly, recombinant proteins were produced in bacteria and purified as described, for example, in Deveraux et al., Nature 388:300–304(1997). […] Generation of fluorogenic AFC (7-amino-4-trifluoromethyl coumarin) product was measured with a spectrofluorometric plate reader in kinetic mode for 30 minutes at 37° C. using excitation and emission wavelengths of 405 nm and 510 nm, respectively. […] Control reactions lacked XIAP, and all assays were conducted in the linear range of substrate hydrolysis to avoid substrate depletion artifacts.

[3] = tested on: NCI panel of 60 tumor cell lines; experiment: NCI panel of 60 tumor cell lines, protein-based colorimetric assay; set-up: species or system human; settings: 48 hours
Description: Selected polyphenylurea compounds were tested on the National Cancer Institute (NCI) panel of 60 tumor cell lines (see FIG. 28a and FIG. 29).

[4] = tested on: NCI panel of 60 tumor cell lines; settings: same assay, comparison drug; cited from earlier work
[5] = tested on: ALVA31 prostate cancer cells; experiment: ALVA31 cell viability (XTT dye-reduction and trypan blue exclusion); format: cell-based; settings: peptides 40 μM, VP-16 100 μM, 24 hrs
Description: The in vivo effects of TPI 792-33 or TPI 792-35, either individually or in combination with the cytotoxic anticancer drug VP-16 (etoposide), on derepression of XIAP-inhibited caspase and viability of ALVA31 cells was determined as follows. ALVA31 prostate cancer cells were seeded onto 96 well plates (10^4 cells/well) in 100 μL RPMI containing 2.5% fetal bovine serum (FBS). […] After another 24 hrs incubation, cell viability was measured by the XTT dye-reduction assay (Roche, Molecular Biochemicals; Indianapolis, Ind.) and trypan blue dye exclusion assay.

[6] = tested on: mouse embryo fibroblasts (MEFs); experiment: mechanism-based toxicity in MEFs from XIAP -/- and wild type mice (MTT); format: cell-based; settings: MEFs with or without SV40 large T antigen
Description: Cells were either tested directly at low passage (FIGS. 38A and C) or after transformation by infection with a retrovirus encoding SV40 large T antigen (FIGS. 38B and D). […] Cell viability was measured by MTT assay, expressing data as a percentage relative to control, untreated cells. Data shown in FIG. 38A–D represent mean±standard deviation of triplicate determinations.

GST-XIAP BIR2 = experiment: binding of XIAP-BIR2 to biotinylated peptides on Neutravidin plates; settings: biotinylated peptides adsorbed to Neutravidin-coated plates
Description: Bound GST polypeptides were detected with an anti-GST antibody.

full length XIAP, sequence (P98170 whole entry): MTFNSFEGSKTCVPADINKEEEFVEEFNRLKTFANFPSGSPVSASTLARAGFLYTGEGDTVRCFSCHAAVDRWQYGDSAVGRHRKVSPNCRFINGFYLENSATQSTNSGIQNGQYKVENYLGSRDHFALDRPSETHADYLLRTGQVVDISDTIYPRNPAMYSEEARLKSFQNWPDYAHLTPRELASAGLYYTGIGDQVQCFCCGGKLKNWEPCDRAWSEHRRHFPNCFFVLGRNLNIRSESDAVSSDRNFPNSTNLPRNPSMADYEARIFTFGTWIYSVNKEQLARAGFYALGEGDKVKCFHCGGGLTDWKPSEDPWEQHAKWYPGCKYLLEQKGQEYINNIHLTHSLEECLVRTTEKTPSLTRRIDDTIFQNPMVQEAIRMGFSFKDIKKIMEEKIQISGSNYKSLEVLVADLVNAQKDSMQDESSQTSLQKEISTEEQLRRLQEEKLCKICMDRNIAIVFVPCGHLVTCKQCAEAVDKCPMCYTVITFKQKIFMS
T1 sequence (P98170 whole entry): as above
GST-XIAP BIR2, sequence (P98170 124-240 limits assumed): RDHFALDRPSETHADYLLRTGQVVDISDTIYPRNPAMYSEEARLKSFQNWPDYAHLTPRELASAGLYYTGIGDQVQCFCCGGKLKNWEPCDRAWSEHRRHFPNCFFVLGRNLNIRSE

Compound: CC[C@H](C)[C@H](NC(=O)[C@@H]1CCCN1C(=O)[C@@H](NC(=O)[C@H](C)N)C(C)C)C(=O)N[C@@H](C)C(=O)N[C@@H](CCC(N)=O)C(=O)N[C@@H](CCCCNC(=O)c1ccc2c(c1)C(=O)OC21c2ccc(N(C)C)cc2Oc2cc(N(C)C)ccc21)C(N)=O [Rhodamine-SMAC] (H-AVPIAQK(5TAMRA)-NH2; N-terminus and C-terminus assumed)
Kd (GST-BIR2 (XIAP fragment)): 20 µM

EC50 (full length XIAP): 25.1 µM
Relative Potency (full length XIAP): 5
Compound: CC(C)CC1CN(C(CNCc2ccccc2)Cc2ccc3ccccc3c2)C(=O)C(=O)N1CCc1cccc(C(F)(F)F)c1 (stereo not shown) [TPI 1391-28]
% nonviable cells (Jurkat leukemia cells; 1 μM): 19%
% nonviable cells (Jurkat leukemia cells; 5 μM (first column headed 5)): 12%
% nonviable cells (Jurkat leukemia cells; 5 μM (second column headed 5)): 28%
cells killed (Jurkat leukemia cells; 5 μM): about 45%
cells killed (Jurkat leukemia cells; 8 μM): ~80%
% nonviable cells (Jurkat leukemia cells; 10 μM): 55%
% nonviable cells (Jurkat leukemia cells; 25 μM): 87%
% nonviable cells (Jurkat leukemia cells; 50 μM): 91%
EC50 (Jurkat leukemia cells; one-day exposure, 0 to 20 μM, read-out: EC50 for killing Jurkat leukemia cells): ~6.5 µM
toxicity to normal bone marrow cells [1]: little toxicity

Compound: COc1ccc(CCN2CCCC2CN(C(=O)Nc2ccccc2)C(CNC(=O)Nc2ccccc2)Cc2ccc3ccccc3c2)cc1 (stereo not shown) [TPI 1396-22]
EC50 (full length XIAP): 45.3 µM
Relative Potency (full length XIAP): 2.8
tumor growth / tumor size [2]: significantly slowed the rate of growth
Activity (relative caspase-3 activity, ratio of Vmax with compound to Vmax of caspase-3 and XIAP controls) (XIAP-inhibited caspase-3; Table X, R2 = L-Proline): 3.3
activity in the derepression assay using full length XIAP (XIAP-inhibited caspase-3; active / inactive): active
average LD50 for the 60 cell lines [3]: 11 ± 2.6 µM
median LD50 for the 60 cell lines [3]: 22 µM

Compound: COc1cc([C@@H]2c3cc4c(cc3[C@@H](O[C@@H]3O[C@@H]5CO[C@@H](C)O[C@H]5[C@H](O)[C@H]3O)[C@H]3COC(=O)[C@H]23)OCO4)cc(OC)c1O [VP-16, etoposide]
mean LD50 in the NCI panel of 60 tumor cell lines [4]: 200 ± 2.5 µM
effect on cell viability, agent alone [5]: essentially no effect

Compound: COc1cccc2c1C(=O)c1c(O)c3c(c(O)c1C2=O)C[C@@](O)(C(C)=O)C[C@@H]3O[C@H]1C[C@H](N)[C@H](O)[C@H](C)O1 [daunorubicin]
selectivity for transformed versus non-transformed cells [6]: do not display selectivity for transformed cells

Compound: TPI 1554-1: biotinylated TPI 1453-1 ([2Thi][2Nal][Phe(4-Cl)]K(Fmoc); also: biotinylated (site not given here))
binding to XIAP-BIR2 (GST-XIAP BIR2): comparable to the binding of SMAC peptides

Compound: TPI 1554-2: biotinylated TPI 1453-6 ([2Thi][2Nal][dK](Fmoc)K(Fmoc); also: biotinylated (site not given here))
binding to XIAP-BIR2 (GST-XIAP BIR2): comparable to the binding of SMAC peptides
